Values quoted from earlier work, collected in patent US12570633B2, “Preparation method for CDK4/6 inhibitor” (CHIA TAI TIANQING PHARMACEUTICAL GROUP CO., LTD., priority 2020, dated 2026).

What was measured:
CDK4/6 = conditions: background statement referring to WO2016141881; read-out: IC50 value against CDK4/6
breast cancer = conditions: background statement referring to WO2016141881

- IC50 (CDK4/6): < 1 nM
SMILES: CC(C)c1c2cc(-c3nc(Nc4ccc(N5CCNCC5)cn4)ncc3F)ccc2nn1C [compound of formula (I)]
- tumor inhibitory activity against breast cancer (breast cancer): good tumor inhibitory activity
